Laboratory results reported in ChEMBL document CHEMBL4396934, “Novel α,β-unsaturated hydroxamic acid derivatives overcome cisplatin resistance” (Bioorg Med Chem, 2019).
pIC50, pKi: −log10 of the molar value. Calls of active or inactive are those of the source. The calls are words filed in the database; no cut-off is given here.

Legend:
Histone deacetylase [1] = test: Inhibition of HDAC in human A2780 cells using Boc-Lys(epsilon-Ac)-AMC as substrate preincubated for 18 hrs followed by substrate addition and further incubation for 3 hrs by microplate reader based fluorescence assay; assay type: cell-based
CAL-27 [2] = test: Antiproliferative activity against human CAL27 cells after 72 hrs by microplate reader based MTT assay; assay type: functional, cell-based; conditions: CAL-27, 72 h
Histone deacetylase [3] = test: Inhibition of HDAC in human CAL27 cells using Boc-Lys(epsilon-Ac)-AMC as substrate preincubated for 18 hrs followed by substrate addition and further incubation for 3 hrs by microplate reader based fluorescence assay; assay type: cell-based
A2780 = test: Antiproliferative activity against human A2780 cells after 72 hrs by microplate reader based MTT assay; assay type: functional, cell-based; conditions: A2780, 72 h
CAL-27 [4] = test: (§1) Potentiation of cisplatin-induced apoptosis in human CAL27 cells assessed as caspase-3/7 activity at 0.5 uM preincubated for 48 hrs followed by cisplatin addition and further incubation for 24 hrs treated with 20 uM pan capsase inhibitor QVD for 30 mins prior to compound addition by CellEvent caspase 3/7 green detection reagent/Hoechst 33342 staining based arrayscan analysis; assay type: functional, cell-based
Homo sapiens [5] = species: Homo sapiens; test: Induction of apoptosis in human Cal27CisR cells assessed as accumulation at sub-G1 phase at 1 uM after 48 hrs by propidium iodide staining based flow cytometry; assay type: functional, cell-based
CAL-27 [6] = test: Induction of apoptosis in human CAL27 cells assessed as accumulation at sub-G1 phase at 0.5 uM after 48 hrs by propidium iodide staining based flow cytometry; assay type: functional, cell-based
CAL-27 [7] = test: (§2) Potentiation of cisplatin-induced apoptosis in human CAL27 cells assessed as increase in caspase-3/7 activation at 0.5 uM preincubated for 48 hrs followed by cisplatin addition and further incubation for 24 hrs by CellEvent caspase 3/7 green detection reagent/Hoechst 33342 staining based arrayscan analysis; assay type: functional, cell-based
Homo sapiens [8] = species: Homo sapiens; test: Induction of apoptosis in human Cal27CisR cells assessed as increase in caspase-3/7 activation at 1 uM after 48 hrs by CellEvent caspase 3/7 green detection reagent/Hoechst 33342 staining based arrayscan analysis; assay type: functional, cell-based
[9] = Potentiation of cisplatin-induced apoptosis in human Cal27CisR cells assessed as accumulation at sub-G1 phase at 1 uM preincubated for 48 hrs followed by cisplatin addition and further incubation for 24 hrs by propidium iodide staining based flow cytometry (reference value: 8.3 +/- 1.06%); assay type: functional
[10] = Potentiation of cisplatin-induced cytotoxicity in human Cal27CisR cells assessed as fold reduction in cisplatin IC50 at 1 uM preincubated for 48 hrs followed by cisplatin addition and further incubation for 72 hrs by MTT assay relative to cisplatin alone; assay type: functional
CAL-27 [11] = test: Potentiation of cisplatin-induced cytotoxicity in human CAL27 cells assessed as fold reduction in cisplatin IC50 at 0.5 uM preincubated for 48 hrs followed by cisplatin addition and further incubation for 72 hrs by MTT assay relative to cisplatin alone; assay type: functional
Histone deacetylase 8 = molecular target: T1, Histone deacetylase 8 (Homo sapiens, UniProt Q9BY41); test: Inhibition of C-terminal His-fusion tagged/N-terminal Strep-2 tagged recombinant human HDAC8 (1 to 377 residues) expressed in insect cells using Boc-Lys(TFa)-AMC as substrate preincubated for 5 mins followed by substrate addition and further incubation for 90 mins measured after 15 mins by microplate reader based fluorescence assay
T1 sequence (Q9BY41 whole entry): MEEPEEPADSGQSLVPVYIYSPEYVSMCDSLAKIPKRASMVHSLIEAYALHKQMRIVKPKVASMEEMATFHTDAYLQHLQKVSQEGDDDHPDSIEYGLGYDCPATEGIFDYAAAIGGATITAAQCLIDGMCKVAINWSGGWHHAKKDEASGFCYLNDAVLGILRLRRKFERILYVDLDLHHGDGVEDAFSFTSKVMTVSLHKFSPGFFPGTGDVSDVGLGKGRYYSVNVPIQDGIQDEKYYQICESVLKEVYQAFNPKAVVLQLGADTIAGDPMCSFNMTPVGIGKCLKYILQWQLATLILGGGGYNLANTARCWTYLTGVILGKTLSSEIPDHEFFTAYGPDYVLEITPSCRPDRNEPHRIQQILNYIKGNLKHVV

Histone deacetylase 2 = Histone deacetylase 2 (Homo sapiens, UniProt Q92769); test: biochemical; assay type: cell-based
[12] = molecular target: T2, Protein deacetylase HDAC6 (Homo sapiens, UniProt Q9UBN7); test: (§3) Inhibition of N-terminal GST-tagged recombinant human HDAC6 (1 to 1215 residues) expressed in Baculovirus infected insect cells using Boc-Lys(Ac)-AMC as substrate preincubated for 5 mins followed by substrate addition and further incubation for 90 mins measured after 15 mins by microplate reader based fluorescence assay
T2 sequence (Q9UBN7 whole entry): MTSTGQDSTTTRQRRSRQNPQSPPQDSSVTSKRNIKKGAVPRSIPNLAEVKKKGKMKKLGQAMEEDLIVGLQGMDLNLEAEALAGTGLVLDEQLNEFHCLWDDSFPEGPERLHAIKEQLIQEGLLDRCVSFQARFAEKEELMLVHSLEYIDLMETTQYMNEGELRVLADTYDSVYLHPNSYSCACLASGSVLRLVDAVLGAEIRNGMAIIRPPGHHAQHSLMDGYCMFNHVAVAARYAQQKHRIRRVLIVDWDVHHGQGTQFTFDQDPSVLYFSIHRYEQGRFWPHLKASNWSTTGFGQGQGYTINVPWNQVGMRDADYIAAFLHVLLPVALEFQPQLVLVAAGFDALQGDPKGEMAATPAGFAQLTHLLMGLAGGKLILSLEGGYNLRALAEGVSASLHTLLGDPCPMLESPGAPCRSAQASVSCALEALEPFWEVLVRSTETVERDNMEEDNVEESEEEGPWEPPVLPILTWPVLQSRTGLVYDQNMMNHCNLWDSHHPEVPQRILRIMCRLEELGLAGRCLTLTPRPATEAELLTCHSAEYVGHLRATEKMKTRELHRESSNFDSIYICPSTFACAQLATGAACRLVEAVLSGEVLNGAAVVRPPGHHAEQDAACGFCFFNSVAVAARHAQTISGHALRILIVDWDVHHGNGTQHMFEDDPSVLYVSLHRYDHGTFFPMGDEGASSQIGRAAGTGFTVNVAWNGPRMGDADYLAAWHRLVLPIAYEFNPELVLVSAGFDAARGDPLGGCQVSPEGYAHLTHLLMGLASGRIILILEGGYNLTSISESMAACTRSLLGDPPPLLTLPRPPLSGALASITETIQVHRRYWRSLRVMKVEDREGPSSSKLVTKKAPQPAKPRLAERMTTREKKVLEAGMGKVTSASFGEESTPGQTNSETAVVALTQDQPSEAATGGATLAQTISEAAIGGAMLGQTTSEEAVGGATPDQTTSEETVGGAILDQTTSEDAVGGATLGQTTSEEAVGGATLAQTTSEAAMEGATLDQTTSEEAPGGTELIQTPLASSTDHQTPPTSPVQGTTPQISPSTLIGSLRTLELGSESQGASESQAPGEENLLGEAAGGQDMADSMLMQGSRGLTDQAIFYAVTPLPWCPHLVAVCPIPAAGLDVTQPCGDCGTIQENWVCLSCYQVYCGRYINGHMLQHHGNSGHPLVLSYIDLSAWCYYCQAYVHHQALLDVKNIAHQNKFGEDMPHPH

Histone deacetylase 4 = Histone deacetylase 4 (Homo sapiens, UniProt P56524); test: as §3, with “C-terminal His-tagged/N-terminal” for “N-terminal”, “HDAC4 (627” for “HDAC6 (1”, “1084” for “1215”, “Boc-Lys(TFa)-AMC” for “Boc-Lys(Ac)-AMC”
CAL-27 [13] = test: Induction of apoptosis in human CAL27 cells assessed as caspase-3/7 activity at 0.5 uM after 48 hrs by CellEvent caspase 3/7 green detection reagent/Hoechst 33342 staining based arrayscan analysis; assay type: functional, cell-based
CAL-27 [14] = test: Potentiation of cisplatin-induced apoptosis in human CAL27 cells assessed as accumulation at sub-G1 phase at 0.5 uM preincubated for 48 hrs followed by cisplatin addition and further incubation for 24 hrs by propidium iodide staining based flow cytometry (reference value: 11.5 +/- 0.89%); assay type: functional
Homo sapiens [15] = species: Homo sapiens; test: as §1, with “Cal27CisR” for “CAL27”, “1” for “0.5”; assay type: functional, cell-based
Homo sapiens [16] = species: Homo sapiens; test: as §2, with “Cal27CisR” for “CAL27”, “1” for “0.5”; assay type: functional, cell-based
[17] = Potentiation of cisplatin-induced apoptosis in human Cal27CisR cells assessed as increase in accumulation at sub-G1 phase at 1 uM preincubated for 48 hrs followed by cisplatin addition and further incubation for 24 hrs by propidium iodide staining based flow cytometry relative to cisplatin alone; assay type: functional
CAL-27 [18] = test: Potentiation of cisplatin-induced apoptosis in human CAL27 cells assessed as increase in accumulation at sub-G1 phase at 0.5 uM preincubated for 48 hrs followed by cisplatin addition and further incubation for 24 hrs by propidium iodide staining based flow cytometry relative to cisplatin alone; assay type: functional

Chain of Histone deacetylase 2 (Q92769 whole entry, the tested form may be a part): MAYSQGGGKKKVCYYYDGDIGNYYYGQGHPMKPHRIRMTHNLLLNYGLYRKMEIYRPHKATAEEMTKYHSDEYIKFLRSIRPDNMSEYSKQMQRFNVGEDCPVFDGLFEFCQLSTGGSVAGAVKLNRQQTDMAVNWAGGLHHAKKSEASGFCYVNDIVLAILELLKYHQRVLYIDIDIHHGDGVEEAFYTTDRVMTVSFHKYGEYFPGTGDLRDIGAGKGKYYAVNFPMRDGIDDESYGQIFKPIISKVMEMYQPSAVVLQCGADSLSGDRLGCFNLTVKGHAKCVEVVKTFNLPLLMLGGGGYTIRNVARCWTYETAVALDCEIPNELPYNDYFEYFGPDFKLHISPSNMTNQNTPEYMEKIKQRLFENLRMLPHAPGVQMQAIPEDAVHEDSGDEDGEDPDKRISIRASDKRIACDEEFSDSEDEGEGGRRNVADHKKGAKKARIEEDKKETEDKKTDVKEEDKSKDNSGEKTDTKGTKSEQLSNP
Chain of Histone deacetylase 4 (P56524 whole entry): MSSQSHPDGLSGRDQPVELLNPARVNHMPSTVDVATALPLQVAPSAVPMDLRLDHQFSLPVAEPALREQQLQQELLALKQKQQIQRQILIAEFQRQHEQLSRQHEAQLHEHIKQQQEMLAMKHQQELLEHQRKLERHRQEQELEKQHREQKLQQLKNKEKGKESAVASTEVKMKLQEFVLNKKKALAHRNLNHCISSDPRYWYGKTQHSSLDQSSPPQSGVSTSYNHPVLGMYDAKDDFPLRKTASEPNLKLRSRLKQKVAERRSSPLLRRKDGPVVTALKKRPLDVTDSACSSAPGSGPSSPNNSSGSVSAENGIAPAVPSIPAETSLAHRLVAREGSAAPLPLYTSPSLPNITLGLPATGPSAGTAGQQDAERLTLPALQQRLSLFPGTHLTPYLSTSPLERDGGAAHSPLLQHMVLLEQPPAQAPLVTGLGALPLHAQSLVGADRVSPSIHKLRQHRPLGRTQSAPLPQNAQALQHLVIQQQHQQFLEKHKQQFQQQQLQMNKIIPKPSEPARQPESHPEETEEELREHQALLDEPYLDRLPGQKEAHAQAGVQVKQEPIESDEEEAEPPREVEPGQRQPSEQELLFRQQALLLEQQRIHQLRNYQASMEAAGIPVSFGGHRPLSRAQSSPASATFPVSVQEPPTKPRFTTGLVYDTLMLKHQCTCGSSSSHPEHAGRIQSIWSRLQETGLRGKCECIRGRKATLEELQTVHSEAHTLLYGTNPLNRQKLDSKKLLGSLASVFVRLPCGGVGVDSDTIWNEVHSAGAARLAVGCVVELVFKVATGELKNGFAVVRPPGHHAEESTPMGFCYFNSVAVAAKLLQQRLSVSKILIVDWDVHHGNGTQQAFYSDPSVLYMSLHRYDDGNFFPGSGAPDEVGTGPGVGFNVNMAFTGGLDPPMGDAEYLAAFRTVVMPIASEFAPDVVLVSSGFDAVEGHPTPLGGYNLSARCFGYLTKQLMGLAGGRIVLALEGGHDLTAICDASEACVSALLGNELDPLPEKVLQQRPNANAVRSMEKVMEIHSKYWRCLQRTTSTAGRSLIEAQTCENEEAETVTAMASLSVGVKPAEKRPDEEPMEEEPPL

Compound `Cc1[nH]c2ccccc2c1CC(=O)NOCc1ccc(/C=C/C(=O)NO)cc1` has an IC50 (Histone deacetylase [1]) of 1120 nM, a pIC50 (CAL-27 [2]) of 5.28 and an IC50 (Histone deacetylase [3]) of 2650 nM. The pIC50 (A2780) was 4.85.

With `O=C(/C=C/c1ccc(CONC(=O)c2ccc3ccccc3n2)cc1)NO` the IC50 (Histone deacetylase [1]) was 1540 nM, the pIC50 (CAL-27 [2]) was 6.10 and the Activity (CAL-27 [4]) was “inactive”. The Activity (Homo sapiens [5]) was “inactive”, the Activity (CAL-27 [6]) was “inactive” and the Activity (CAL-27 [7]) was “Active”. For the same compound, the Activity (Homo sapiens [8]) was “Active”, the IC50 (Histone deacetylase [3]) was 270 nM and the Activity [9] was 38.9%. The “Ratio IC50” value [10] was 6.86, the “Ratio IC50” value (CAL-27 [11]) was 5.69 and the pKi (Histone deacetylase 8) was 5.33. It also gave a pKi (Histone deacetylase 2) of 7.15, a pKi [12] of 7.00 and a pKi (Histone deacetylase 4) of 5.02. The Activity (CAL-27 [13]) was “inactive”, the Activity (CAL-27 [14]) was 34.5% and the Activity (Homo sapiens [15]) was “inactive”. For the same compound, the Activity (Homo sapiens [16]) was “Active”, the “fold change (FC)” value [17] was 4.7 and the “fold change (FC)” value (CAL-27 [18]) was 3. It also gave a pIC50 (A2780) of 6.10.

`Cc1cc(C)cc(NC(=O)NOCc2ccc(/C=C/C(=O)NO)cc2)c1` gave an IC50 (Histone deacetylase [1]) of 1540 nM, a pIC50 (CAL-27 [2]) of 5.64 and an IC50 (Histone deacetylase [3]) of 1120 nM. For the same compound, the pIC50 (A2780) was 5.70.

With `O=C(/C=C/c1ccc(CONC(=O)Nc2cccc3ccccc23)cc1)NO` the IC50 (Histone deacetylase [1]) was 43200 nM, the pIC50 (CAL-27 [2]) was 4.47 and the IC50 (Histone deacetylase [3]) was 40300 nM. For the same compound, the pIC50 (A2780) was 4.41.

In the case of `Cc1[nH]c2ccccc2c1CCNCc1ccc(/C=C/C(=O)NO)cc1` [PANOBINOSTAT], the pIC50 (CAL-27 [2]) was 7.96 and the pIC50 (A2780) was 7.26.

Work on `CC(C(=O)NOCc1ccc(/C=C/C(=O)NO)cc1)(c1ccccc1)c1ccccc1` yielded an IC50 (Histone deacetylase [1]) of 3340 nM, a pIC50 (CAL-27 [2]) of 5.24 and an IC50 (Histone deacetylase [3]) of 4810 nM. It also gave a pIC50 (A2780) of 5.34.

For `COc1ccc(NC(=O)NOCc2ccc(/C=C/C(=O)NO)cc2)cc1`, the IC50 (Histone deacetylase [1]) was 570 nM, the pIC50 (CAL-27 [2]) was 5.77 and the Activity (CAL-27 [4]) was “inactive”. For the same compound, the Activity (Homo sapiens [5]) was “inactive”, the Activity (CAL-27 [6]) was “inactive” and the Activity (CAL-27 [7]) was “Active”. The Activity (Homo sapiens [8]) was “Active”, the IC50 (Histone deacetylase [3]) was 490 nM and the Activity [9] was 52.2%. For the same compound, the “Ratio IC50” value [10] was 4.76, the “Ratio IC50” value (CAL-27 [11]) was 2.95 and the pKi (Histone deacetylase 8) was 5.38. It also gave a pKi (Histone deacetylase 2) of 6.82, a pKi [12] of 6.92 and a pKi (Histone deacetylase 4) of 4.60. For the same compound, the Activity (CAL-27 [13]) was “inactive”, the Activity (CAL-27 [14]) was 36.7% and the Activity (Homo sapiens [15]) was “inactive”. For the same compound, the Activity (Homo sapiens [16]) was “Active”, the “fold change (FC)” value [17] was 6 and the “fold change (FC)” value (CAL-27 [18]) was 3. It also gave a pIC50 (A2780) of 5.94.

`CCNC(=O)NOCc1ccc(/C=C/C(=O)NO)cc1` showed an IC50 (Histone deacetylase [1]) of 6850 nM, a pIC50 (CAL-27 [2]) of 4.85 and an IC50 (Histone deacetylase [3]) of 14200 nM. It also gave a pIC50 (A2780) of 4.45.

For `O=C(/C=C/c1ccc(CONC(=O)c2ccccc2)cc1)NO`, the IC50 (Histone deacetylase [1]) was 940 nM, the pIC50 (CAL-27 [2]) was 5.52 and the IC50 (Histone deacetylase [3]) was 1160 nM. For the same compound, the pIC50 (A2780) was 5.68.
